Data published in ChEMBL document CHEMBL3045440, “Determination of stereoselective interaction between enantiomers of chiral gamma-aryl-1H-1,2,4-triazole derivatives and Penicillium digitatum” (J Agric Food Chem, 2009).
In brackets after ≈: the same amount, converted by molar mass.

Tests used:
Penicillium digitatum [1] = test: Fungicidal activity against Penicillium digitatum at 26 degC after 48 hr by growth inhibition test; type: functional, organism-based
[2] = target: T1, Cytochrome P450 14alpha-demethylase (Penicillium digitatum, UniProt A1XG20); test: Binding affinity to Penicillium digitatum CYP51 expressed in Escherichia coli BL21 (DE3) cells by binding spectrum method
T1 sequence (A1XG20 whole entry): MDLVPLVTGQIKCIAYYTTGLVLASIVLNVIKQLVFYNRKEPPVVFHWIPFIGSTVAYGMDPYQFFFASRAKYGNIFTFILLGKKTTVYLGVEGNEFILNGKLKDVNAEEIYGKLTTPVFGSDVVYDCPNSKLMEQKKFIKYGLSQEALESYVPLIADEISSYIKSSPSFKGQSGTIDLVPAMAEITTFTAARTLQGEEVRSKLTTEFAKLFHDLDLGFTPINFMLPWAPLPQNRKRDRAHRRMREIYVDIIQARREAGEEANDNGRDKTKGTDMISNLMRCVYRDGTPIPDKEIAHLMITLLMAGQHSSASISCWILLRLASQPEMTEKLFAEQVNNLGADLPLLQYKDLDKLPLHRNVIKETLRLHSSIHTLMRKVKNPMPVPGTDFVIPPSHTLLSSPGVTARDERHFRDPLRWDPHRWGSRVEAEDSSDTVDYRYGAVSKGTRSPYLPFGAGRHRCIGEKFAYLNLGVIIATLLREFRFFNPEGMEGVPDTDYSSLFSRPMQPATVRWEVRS

Penicillium digitatum [3] = test: Fungicidal activity against Penicillium digitatum at 50 mg/l at 26 degC after 48 hr by growth inhibition test; type: functional; conditions: read-out: GI
[4] = target: T1, Cytochrome P450 14alpha-demethylase; test: Binding affinity to Penicillium digitatum CYP51 expressed in Escherichia coli BL21 (DE3) cells assessed as absorption spectral changes with maximum at 420-430 nm and trough at 385-400 nm (type II) by binding spectrum method
[5] = target: T1, Cytochrome P450 14alpha-demethylase; test: Binding affinity to Penicillium digitatum CYP51 expressed in Escherichia coli BL21 (DE3) cells assessed as absorption spectral changes with maximum at 390 nm and trough at 420 nm (type I) by binding spectrum method
[6] = target: T1, Cytochrome P450 14alpha-demethylase; test: Binding affinity to Penicillium digitatum CYP51 expressed in Escherichia coli BL21 (DE3) cells assessed as absorption spectral changes with maximum at 420-430 nm and trough at 390-410 nm (type II) by binding spectrum method

Row | Compound | Kd ([2]; read-out: Kd) [nM] | Activity [4] | Kd ([2]; bl21-de3) | EC50 (Penicillium digitatum [1]) [µg/mL] | inhibition of growth at 50 µg/mL (Penicillium digitatum [3]) [%] | Activity [5] | Activity [6]
1 | CC[C@H](CCn1cncn1)c1ccc(Cl)cc1 | 150 | Active |  | 0.587 (≈ 2.35 µM) | 92 |  | 
2 | CCC[C@@H](CCn1cncn1)c1ccccc1 | 210 | Active |  |  | 79 |  | 
3 | CC[C@@H](CCn1cncn1)c1ccc(OC)cc1 | 505 | Active |  |  | 77 |  | 
4 | CCC[C@H](CCn1cncn1)c1ccccc1 | 140 | Active |  |  | 90 |  | 
5 | CC(C)(C)C(O)/C(=C/c1ccc(Cl)cc1Cl)n1cncn1 (stereo not given) [DINICONAZOLE] |  |  |  | 0.09 (≈ 0.276 µM) | 100 |  | 
6 | CC[C@H](CCn1cncn1)c1ccc(OC)cc1 | 63 | Active |  |  | 89 |  | 
7 | CC(C)(C)C(O)(CCc1ccc(Cl)cc1)Cn1cncn1 (stereo not given) [TEBUCONAZOLE] | 320 |  |  | 0.37 (≈ 1.2 µM) | 100 | Active | 
8 | CC(C)(C)C(O)/C(=C\c1ccc(Cl)cc1Cl)n1cncn1 (stereo not given) [DINICONAZOLE] | 120 |  |  |  |  |  | Active
9 | CC[C@H](CCn1cncn1)c1ccccc1 | 34 | Active |  | 0.577 (≈ 2.68 µM) | 84 |  | 
10 | CC(C)(C)C(=O)C(Oc1ccc(Cl)cc1)n1cncn1 (stereo not given) [TRIADIMEFON] | 990 |  |  | 2.27 (≈ 7.73 µM) | 100 |  | Active
11 | CC[C@@H](CCn1cncn1)c1ccccc1 | 1660 | Active |  | 89.6 (≈ 416 µM) | 20 |  | 
12 | CC(C)(C)C(O)C(Oc1ccc(Cl)cc1)n1cncn1 (stereo not given) [TRIADIMENOL] | 640 |  |  | 1.44 (≈ 4.87 µM) | 100 |  | Active

The next lines start with results.

Row | Kd ([2]; read-out: Kd) [nM] | Activity [4] | Kd ([2]; bl21-de3) | Compound | EC50 (Penicillium digitatum [1]) [µg/mL] | inhibition of growth at 50 µg/mL (Penicillium digitatum [3]) [%] | Activity [5] | Activity [6]
13 | 150 | Active |  | CCC[C@H](CCn1cncn1)c1ccc(OC)cc1 | 0.603 (≈ 2.33 µM) | 90 |  | 
14 | 150 | Active |  | CCCC[C@@H](CCn1cncn1)c1ccc(F)cc1 | 1.15 (≈ 4.4 µM) | 95 |  | 
15 | 1140 | Active |  | CC[C@@H](CCn1cncn1)c1ccc(Cl)cc1 | 61.1 (≈ 245 µM) | 23 |  | 
16 | 230 | Active |  | CC[C@@H](CCn1cncn1)c1ccc(F)cc1 |  | 78 |  | 
17 | 49 | Active |  | CCCC[C@H](CCn1cncn1)c1ccc(OC)cc1 | 0.62 (≈ 2.27 µM) | 100 |  | 
18 | 340 |  |  | CCCC[C@@H](CCn1cncn1)c1ccc(Cl)cc1 |  | 83 | Active | 
19 | 1220 | Active |  | CCCC[C@@H](CCn1cncn1)c1ccc(C)cc1 |  | 87 |  | 
20 |  |  | Not Active | CCC[C@@H](CCn1cncn1)c1ccc(OC)cc1 | 138 (≈ 534 µM) | < 5 |  | 
21 | 760 | Active |  | CCCC[C@H](CCn1cncn1)c1ccccc1 |  | 73 |  | 
22 | 180 | Active |  | CCCC[C@@H](CCn1cncn1)c1ccc(OC)cc1 | 0.97 (≈ 3.55 µM) | 97 |  | 
23 |  |  | Not Active | CCC[C@@H](CCn1cncn1)c1ccc(F)cc1 |  | 78 |  | 
24 | 46 | Active |  | CCCC[C@H](CCn1cncn1)c1ccc(C)cc1 |  | 93 |  | 
25 | 90 | Active |  | CCCC[C@H](CCn1cncn1)c1ccc(F)cc1 | 0.88 (≈ 3.37 µM) | 100 |  | 
26 |  |  | Not Active | CCCC[C@@H](CCn1cncn1)c1ccccc1 |  | 65 |  | 
27 | 250 | Active |  | CCC[C@H](CCn1cncn1)c1ccc(F)cc1 |  | 89 |  | 
28 | 350 | Active |  | CCCC[C@H](CCn1cncn1)c1ccc(Cl)cc1 |  | 88 |  | 
29 | 81 | Active |  | CC[C@H](CCn1cncn1)c1ccc(F)cc1 |  | 88 |  | 
